# ChEMBL document CHEMBL1201862, “PubChem BioAssay data set” (2004)
# The source made the active and inactive calls.
# How the values were obtained:
# [1] = molecular target: T1, Sentrin-specific protease 6 (Homo sapiens, UniProt Q9GZR1); format: functional;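 note: Luminescence-based dose-response confirmatory assay of SENP6 inhibition, following up an ultra-high-throughput screen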
# T1 sequence (Q9GZR1 whole entry): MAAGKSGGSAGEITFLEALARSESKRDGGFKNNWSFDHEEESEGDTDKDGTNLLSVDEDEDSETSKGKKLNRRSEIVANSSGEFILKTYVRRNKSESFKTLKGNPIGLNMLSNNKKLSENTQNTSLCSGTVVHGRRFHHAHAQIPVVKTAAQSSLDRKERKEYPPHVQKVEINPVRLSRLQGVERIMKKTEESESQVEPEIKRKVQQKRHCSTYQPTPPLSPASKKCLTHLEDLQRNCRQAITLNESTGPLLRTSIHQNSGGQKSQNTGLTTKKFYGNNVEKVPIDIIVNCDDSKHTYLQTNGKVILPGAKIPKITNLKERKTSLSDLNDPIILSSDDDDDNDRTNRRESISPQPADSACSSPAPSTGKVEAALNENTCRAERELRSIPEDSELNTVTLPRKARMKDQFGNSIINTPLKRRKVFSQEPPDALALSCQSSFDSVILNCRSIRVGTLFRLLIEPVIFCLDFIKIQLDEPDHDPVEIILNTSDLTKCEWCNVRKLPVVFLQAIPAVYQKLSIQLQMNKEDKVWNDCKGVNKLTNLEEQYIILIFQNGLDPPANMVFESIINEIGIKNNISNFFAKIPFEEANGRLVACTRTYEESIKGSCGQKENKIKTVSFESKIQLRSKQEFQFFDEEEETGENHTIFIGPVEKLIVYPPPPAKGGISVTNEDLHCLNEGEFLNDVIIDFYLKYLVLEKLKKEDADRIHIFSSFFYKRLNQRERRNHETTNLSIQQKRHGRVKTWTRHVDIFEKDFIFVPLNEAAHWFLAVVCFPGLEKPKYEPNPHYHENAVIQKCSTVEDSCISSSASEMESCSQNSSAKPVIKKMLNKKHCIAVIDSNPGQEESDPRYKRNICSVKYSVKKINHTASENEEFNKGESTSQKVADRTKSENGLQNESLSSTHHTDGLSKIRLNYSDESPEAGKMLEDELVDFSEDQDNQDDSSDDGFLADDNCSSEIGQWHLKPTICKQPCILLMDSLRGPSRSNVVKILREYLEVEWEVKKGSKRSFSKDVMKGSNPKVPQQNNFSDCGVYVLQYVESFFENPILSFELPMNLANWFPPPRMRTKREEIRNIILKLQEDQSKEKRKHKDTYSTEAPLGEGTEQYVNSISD
# Caspase-3 = molecular target: T2, Caspase-3 (Homo sapiens, UniProt P42574); format: functional;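 note: Dose-response selectivity test against caspase-3 for candidate inhibitors of sentrin-specific proteases (SENPs)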
# T2 sequence (P42574 whole entry): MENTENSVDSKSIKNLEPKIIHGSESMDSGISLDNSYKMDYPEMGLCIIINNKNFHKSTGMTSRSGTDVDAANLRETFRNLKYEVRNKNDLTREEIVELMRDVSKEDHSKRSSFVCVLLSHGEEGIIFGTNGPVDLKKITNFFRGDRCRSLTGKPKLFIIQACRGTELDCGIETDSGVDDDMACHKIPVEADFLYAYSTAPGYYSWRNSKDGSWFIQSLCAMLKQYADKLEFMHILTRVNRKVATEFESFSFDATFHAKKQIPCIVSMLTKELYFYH
# [2] = NIH-3T3 fibroblast cytotoxicity, dose response, cytotoxicity control, cell-based, fluorescence, Alamar Blue, secondary assay (AID 2327); format: functional;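 note: NIH-3T3 mouse fibroblasts cultured with fluconazole at 8 µg/mL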
# [3] = Counterscreen for AddAB inhibitors: absorbance-based bacterial cell-based high throughput dose response assay for inhibitors of bacterial viability. [Related pubchem assays (depositor defined):AID435030, AID449728, AID449731, AID488942, AID488955, AID488956]; format: functional
# cells = format: functional, cell-based
Compound,IC50 [1],IC50 (Caspase-3),EC50 [2],IC50 [3],EC50 (cells)
CC(C)n1cnc2c(NCc3ccccc3)cc(OCC3CCN(C)CC3)cc21,3.95 µM (active),7.82 µM (active),,,
CC(C)N(C(=O)Nc1ccc2nsnc2c1)C(C)C,2.39 µM (active),5.81 µM (active),,,
NS(=O)(=O)c1ccc(NC2=CC(=O)C(=O)c3ccccc32)cc1,2.89 µM (active),9.75 µM (active),,,
O=C(N/N=C/c1ccc(O)cc1O)c1ccc(CN2C(=O)c3cccc4cccc2c34)cc1,,,4.96 µM (active),> 119 µM (inactive),31 µM (active)
CCC(=O)NC(c1ccccc1OC)c1ccc2cccnc2c1O (configuration not stated),,,26.6 µM (inconclusive),> 119 µM (inactive),7.23 µM (active)
